From the supplement of paper PMC6461962

Key:
[1] = tested on: Pseudomonas fluorescens FW300-N2E2
How it was run: (§1)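 Washed cells (final OD600 0.02, 80 µL) were added to 384-well plates of serially diluted inorganic ion salts or equimolar nitrilotriacetic acid complexes. Aerobic plates were shaken at 700 rpm at 30 °C, and anaerobic plates were left unshaken. OD600 was read at 24 h (48 h for R2A strain comparisons) and scaled between water and growth-blocking antibiotic controls, dropping wells with precipitate. IC50 came from drc R package fits of at least two biological replicate curves.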

[2] = tested on: Rhodanobacter sp. FW104-10B01
How it was run: as §1

[3] = medium / electron acceptor: N2E2 Glucose/aerobic
[4] = medium / electron acceptor: N2E2 Glucose/aerobic 0.25xMinerals
[5] = medium / electron acceptor: N2E2 Glucose/aerobic (2)
[6] = medium / electron acceptor: N2E2 KB/aerobic
[7] = medium / electron acceptor: N2E2 LB/aerobic
[8] = medium / electron acceptor: N2E2 LB/aerobic (2)
[9] = medium / electron acceptor: N2E2 LB/nitrate
[10] = medium / electron acceptor: N2E2 Lactate/aerobic
[11] = medium / electron acceptor: N2E2 R2A/aerobic
[12] = medium / electron acceptor: 10B01 R2A/aerobic
[13] = medium / electron acceptor: 10B01 R2A/nitrate

Row | Structure (SMILES) | IC50 growth inhibition [1, 3] | IC50 growth inhibition [1, 4] | IC50 growth inhibition [1, 5] | IC50 growth inhibition [1, 6] | IC50 growth inhibition [1, 7] | IC50 growth inhibition [1, 8] | IC50 growth inhibition [1, 9] | IC50 growth inhibition [1, 10] | IC50 growth inhibition [1, 11] | IC50 growth inhibition [2, 12] | IC50 growth inhibition [2, 13]
1 | O.O.O.O.O.O.[Cl-].[Cl-].[Co+2] [Cobalt chloride hexahydrate] | < 0.00244 mM | < 0.00244 mM | < 0.00244 mM | 0.0208 mM | 0.175 mM | 0.0867 mM | > 5 mM | 0.00741 mM | 0.0138 mM | 0.000592 M | 0.000484 M
2 | [O-][Cl+3]([O-])([O-])O [Sodium perchlorate monohydrate] | 67.2 mM | 356 mM | 117 mM | 82 mM | 95 mM | 106 mM | 69.8 mM | 235 mM | 89.4 mM | 0.354 M | 0.00554 M
3 | O.O=[Te](=O)([O-])[O-].[K+].[K+] [potassium tellurate hydrate] | > 0.5 mM | 0.0753 mM | 0.444 mM | > 0.5 mM | > 0.5 mM | 0.377 mM | 0.0845 mM | 0.354 mM | > 0.5 mM | > 0.0005 M | > 0.0005 M
4 | [Ca+2].[Cl-].[Cl-] [Calcium chloride dihydrate] | > 500 mM | > 500 mM | > 500 mM | > 500 mM | 309 mM | 365 mM | 65.1 mM | 452 mM | 333 mM | 0.354 M | 0.354 M
5 | O.O.O.O.O=S(=O)([O-])[O-].[Be+2] [beryllium sulfate tetrahydrate] | 1.55 mM | 1.55 mM | 1.55 mM | 109 mM | 1.61 mM | < 0.244 mM | 91.9 mM | 4.8 mM | > 500 mM | > 0.5 M | > 0.5 M
6 | O.O.O.O.O.O.[Al+3].[Cl-].[Cl-].[Cl-] [Aluminum chloride hydrate] | > 5 mM | 0.409 mM | > 5 mM | > 5 mM | > 5 mM | > 5 mM | 4.64 mM | > 5 mM | 0.227 mM | 0.00354 M | > 0.005 M
7 | O=P(O)(O)OP(=O)(O)O [Sodium pyrophosphate dibasic] | 29.4 mM | 0.848 mM | 0.226 mM | 1.78 mM | 36.1 mM | 25.4 mM | 4.34 mM | > 50 mM | 2.35 mM | 0.00854 M | 0.000854 M
8 | O.O.O.O.O.O.O.O.O.O.O=S(=O)([O-])[O-].[Na+].[Na+] [Sodium sulfate] | 356 mM | > 500 mM | > 500 mM | > 500 mM | 455 mM | > 500 mM | 311 mM | 384 mM | 183 mM | 0.354 M | 0.317 M
9 | O=S(O)(O)=S [Sodium thiosulfate] | 318 mM | > 500 mM | 386 mM | 319 mM | 363 mM | 360 mM | 185 mM | 355 mM | 360 mM | > 0.5 M | 0.0576 M
10 | [O-][Cl+]O [Sodium Chlorite] | < 0.00244 mM | < 0.00244 mM | < 0.00244 mM | < 0.00244 mM | 0.0105 mM | < 0.00244 mM | 0.00287 mM | < 0.00244 mM | 0.00662 mM | > 0.005 M | > 0.005 M
11 | OCl [Sodium hypochlorite] | > 5 mM | > 5 mM | 2.28 mM | > 5 mM | > 5 mM | > 5 mM | 0.534 mM | > 5 mM | 3.32 mM | > 0.005 M | > 0.005 M
12 | O=P[O-].[Na+] [Sodium hypophosphite monohydrate] | 354 mM | 451 mM | 146 mM | 380 mM | 354 mM | > 500 mM | 306 mM | 354 mM | > 500 mM | 0.354 M | 0.171 M
13 | [I-].[Na+] [sodium iodide] | 59.4 mM | > 500 mM | 107 mM | 304 mM | 330 mM | 354 mM | 125 mM | 124 mM | 237 mM | 0.354 M | 0.319 M
14 | O.[Cl-].[Li+] [Lithium chloride hydrate] | 349 mM | > 500 mM | 33.9 mM | 325 mM | 354 mM | 354 mM | 263 mM | 321 mM | 176 mM | 0.0156 M | 0.0987 M
15 | [Cl-].[Cl-].[Sr+2] [Strontium chloride] | 0.332 mM | < 0.244 mM | < 0.244 mM | < 0.244 mM | 27.7 mM | 17.2 mM | 12.8 mM | < 0.244 mM | 261 mM | 0.354 M | 0.37 M
16 | O.O.[Na+].[Na+].[O]=[W](=[O])([O-])[O-] [Sodium tungstate dihydrate] | < 0.244 mM | < 0.244 mM | 3.31 mM | 1.17 mM | 0.539 mM | 20.5 mM | 21.3 mM | < 0.244 mM | 237 mM | > 0.5 M | > 0.5 M
17 | [Cl][Pb][Cl] [lead (II) chloride] | > 5 mM | 0.0379 mM | > 5 mM | > 5 mM | > 5 mM | > 5 mM | > 5 mM | > 5 mM | 0.14 mM | > 0.005 M | > 0.005 M
18 | CC(=O)[O-].[Tl+] [Thallium(I) acetate] | < 0.00244 mM | < 0.00244 mM | < 0.00244 mM | < 0.00244 mM | < 0.00244 mM | < 0.00244 mM | < 0.00244 mM | < 0.00244 mM | < 0.00244 mM | > 0.005 M | 0.00295 M
19 | [O-][Cl+2]([O-])O [Sodium Chlorate] | 9.21 mM | 8.75 mM | 0.387 mM | 5.02 mM | 24.5 mM | 54.4 mM | 4.33 mM | 15.7 mM | 45.9 mM | 0.355 M | < 0.000244 M
20 | [Na+].[O]=[V](=[O])[O-] [Sodium metavanadate] | 0.0793 mM | 0.432 mM | 0.0997 mM | < 0.0244 mM | 3.26 mM | 13.4 mM | 6.94 mM | 2.34 mM | 8.62 mM | > 0.05 M | > 0.05 M
